Among the test systems are HT29 colon; KM12 colon; MALME-3M melanoma; 786-0 renal; NCI-H226 lung; IGROV1 ovarian; HCT-15 colon; CAKI-1 renal; HS 578T breast; SF-539 CNS.
What all share (test): inhibition of tumour cell growth, NCI panel, 48 h

The structures appear in SMILES notation. Several values for one entry are separate records, joined by “and”; a condition that tells them apart may be missing. Equal values may be shown once.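 The compound was tested at five concentrations on cells cultured in 96-well plates, with a 48-hour exposure period. The concentration for 50% growth inhibition is given as GI50. TGI: concentration producing complete growth inhibition.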

Take `CC(=O)Nc1ccc2c(c1)c(C1=C(c3cn(C)c4ccccc34)C(=O)NC1=O)cn2C`: the GI50 in the test on HT29 colon is 0.925 µM; in the test with KM12 colon, 1.16 µM; with MALME-3M melanoma it was more than 9.93 µM; in the test on 786-0 renal it was 1.28 µM; with NCI-H226 lung it was 3.1 µM; in the test with IGROV1 ovarian it was 16.4 µM. Also, the GI50 in the test with HCT-15 colon was 1.02 µM; in the test with CAKI-1 renal it was 1.07 µM; in the test with HS 578T breast, 0.596 µM; in the test on SF-539 CNS, 0.671 µM. The TGI in the test with HT29 colon, with KM12 colon, in the test on MALME-3M melanoma, in the test with 786-0 renal, in the test on NCI-H226 lung and in the test with IGROV1 ovarian was more than 25 µM in each case. In addition, the TGI was more than 25 µM with HCT-15 colon, 24.3 µM in the test on CAKI-1 renal, more than 6.79 µM in the test with HS 578T breast and 1.97 µM with SF-539 CNS.

Consider `C=C1CC2(OC1=O)C(=O)N(CCCCCCCN1C(=O)C3(CC(=C)C(=O)O3)c3ccccc31)c1ccccc12` (configuration not stated), for which the GI50 with HT29 colon was 1.49 µM; with KM12 colon, 3.39 µM; in the test with MALME-3M melanoma it was 0.955 µM; with 786-0 renal, 1.49 µM; with NCI-H226 lung it was 1 µM; in the test with IGROV1 ovarian, 0.966 µM. For the same compound, the GI50 in the test with HCT-15 colon was 1.3 µM; in the test on CAKI-1 renal it was 1.4 µM; in the test on HS 578T breast, 5.92 µM; in the test on SF-539 CNS it was 1.26 µM. The TGI in the test on HT29 colon turned out to be 5.4 µM; with KM12 colon it was 11.6 µM; with MALME-3M melanoma, 2.09 µM; with 786-0 renal it was 5.42 µM; with NCI-H226 lung, 2.76 µM; in the test with IGROV1 ovarian, 2.29 µM. In addition, the TGI with HCT-15 colon came to 4.61 µM; in the test on CAKI-1 renal it was 5.96 µM; in the test with HS 578T breast, 32.3 µM; in the test on SF-539 CNS it was 4.27 µM.

On to `CN1CCN(CN2C(=O)C3C4C=CC(C3C2=O)C2C3C(=O)N(CN5CCN(C)CC5)C(=O)C3C42)CC1` (configuration not stated), for which the TGI was more than 100 µM in the test on HT29 colon; 41.7 µM and 51.9 µM and > 100 µM in the test on KM12 colon; 34.2 µM in the test on MALME-3M melanoma; 34.3 µM and 40.3 µM and 36 µM in the test with 786-0 renal; more than 100 µM with NCI-H226 lung; more than 100 µM in the test on IGROV1 ovarian. In addition, the TGI with HCT-15 colon is 34.8 µM and 42.1 µM and 30.3 µM; in the test on CAKI-1 renal, more than 100 µM; with HS 578T breast, more than 100 µM; with SF-539 CNS, 44.4 µM and 45.4 µM and 49.1 µM. Also, the GI50 was 33.5 µM and > 57.7 µM and 76.8 µM with NCI-H226 lung; 44.8 µM and 33.6 µM and 70.6 µM in the test on CAKI-1 renal.

In the case of `COc1cccc(C2CC(C)(N3CCCC3)Oc3cc4c(cc32)OCO4)c1O` (configuration not stated), the TGI is 45.3 µM with HT29 colon; more than 100 µM in the test with KM12 colon; more than 100 µM in the test on MALME-3M melanoma; more than 100 µM with 786-0 renal; 55.9 µM in the test with NCI-H226 lung; 99.2 µM in the test with IGROV1 ovarian. The TGI with HCT-15 colon is 70 µM; with CAKI-1 renal it was more than 100 µM; in the test on HS 578T breast, 57.7 µM; in the test with SF-539 CNS it was 46.1 µM.

For the compound `COc1ccc(N=C2CSc3nnc(-c4cc(F)c(Cl)cc4Cl)n3N2)cc1`, the GI50 is 0.395 µM in the test on HT29 colon; 0.469 µM in the test with KM12 colon; 0.529 µM with MALME-3M melanoma; 1.04 µM with 786-0 renal; 3.84 µM in the test with NCI-H226 lung; 0.187 µM with IGROV1 ovarian. The GI50 in the test with HCT-15 colon was 1.03 µM; with CAKI-1 renal, 1.52 µM; in the test on HS 578T breast it was 1.5 µM; with SF-539 CNS, 1.05 µM. Besides, the TGI in the test on HT29 colon came out at 2.11 µM; with KM12 colon, 3.45 µM; with MALME-3M melanoma, 3.77 µM; in the test on 786-0 renal, 4 µM; with NCI-H226 lung, 38.2 µM; with IGROV1 ovarian it was 0.595 µM. The TGI was found to be 17.2 µM in the test with HCT-15 colon, 4.49 µM in the test on CAKI-1 renal, 9 µM in the test with HS 578T breast and 2.63 µM with SF-539 CNS.

Consider `Cc1cc(-c2ncc(CC(=O)Nc3ccc(-c4cnccn4)cn3)cc2C)ccn1`, for which the GI50 in the test with HT29 colon is 57.8 µM; with KM12 colon, 36.1 µM; in the test on MALME-3M melanoma it was 21.2 µM; in the test with 786-0 renal, more than 100 µM; in the test with NCI-H226 lung, 13.7 µM; with IGROV1 ovarian it was 30.5 µM. Moreover, the GI50 in the test with HCT-15 colon is 38.4 µM; with CAKI-1 renal, 17.1 µM; in the test with HS 578T breast, 26 µM; in the test with SF-539 CNS, 26.1 µM. Further, the TGI in the test on HT29 colon, in the test with KM12 colon, in the test with MALME-3M melanoma, in the test on 786-0 renal, in the test with NCI-H226 lung and with IGROV1 ovarian was more than 100 µM in each case. Also, the TGI in the test with HCT-15 colon, in the test on CAKI-1 renal, in the test with HS 578T breast and with SF-539 CNS was more than 100 µM throughout.

With `COc1cc(C2C=C(c3cccc(NC(C)=O)c3)Nc3ncnn32)cc(OC)c1OC` (configuration not stated), the GI50 in the test on HT29 colon was 1.38 µM; in the test on KM12 colon it was 0.396 µM; in the test with MALME-3M melanoma, 0.389 µM; in the test with 786-0 renal, 0.615 µM; in the test on NCI-H226 lung it was 0.667 µM; in the test on IGROV1 ovarian, 0.65 µM. Moreover, the GI50 was 2.02 µM in the test with HCT-15 colon, 0.573 µM in the test on CAKI-1 renal, 0.153 µM with HS 578T breast and 0.367 µM with SF-539 CNS. In addition, the TGI in the test with HT29 colon is more than 100 µM; in the test with KM12 colon, more than 100 µM; in the test on MALME-3M melanoma, more than 100 µM; with 786-0 renal it was more than 100 µM; in the test with NCI-H226 lung it was more than 100 µM; with IGROV1 ovarian, more than 26.5 µM. Also, the TGI was more than 100 µM in the test with HCT-15 colon, more than 100 µM in the test on CAKI-1 renal, 0.413 µM in the test with HS 578T breast and 2 µM in the test on SF-539 CNS.

The values are drawn from PubChem BioAssay (NCI).
